Measured values as given in patent publication EP4722207A1, “OXOISOINDOLINYL-SUBSTITUTED TETRAHYDROPYRIMIDINEDIONE DERIVATIVE AND USE THEREOF” (Gluetacs Therapeutics (Shanghai) Co., Ltd., priority 2023, dated 2024).

Tests used:
H292 = test: Cell viability assay (CellTiter-Meiluncell Luminescent), tumor cell proliferation, H292; details: Homo sapiens, NCI-H292, 96 h; for inhibition at 0.01 µM: read-out: Inhibition Rate at 10 nM (%); for inhibition at 0.5 µM: read-out: Inhibition Rate at 500 nM (%)
WEE1 = biological target: T1, WEE1 (Homo sapiens, UniProt P30291+Q96SW2); test: Western-blot assay, substrate protein degradation in hPBMCs: WEE1; type: cell-based; details: 24 hours of compound treatment, 50 nM and 500 nM
T1 construct: effects of the compounds of the present disclosure on the expression of target proteins in cells; endogenous in cells; host or cells: human PBMCs (hPBMCs)

IKZF1 = biological target: T2, IKZF1 (Homo sapiens, UniProt Q13422+Q96SW2); test: Western-blot assay, substrate protein degradation in hPBMCs: IKZF1; type: cell-based; details: 24 hours of compound treatment, 50 nM and 500 nM
T2 construct: effects of the compounds of the present disclosure on the expression of target proteins in cells; endogenous in cells; host or cells: human PBMCs (hPBMCs)

IKZF2 = biological target: T3, IKZF2 (Homo sapiens, UniProt Q96SW2+Q9UKS7); test: Western-blot assay, substrate protein degradation in hPBMCs: IKZF2; type: cell-based; details: 24 hours of compound treatment, 50 nM and 500 nM
T3 construct: effects of the compounds of the present disclosure on the expression of target proteins in cells; endogenous in cells; host or cells: human PBMCs (hPBMCs)

IKZF3 = biological target: T4, IKZF3 (Homo sapiens, UniProt Q96SW2+Q9UKT9); test: Western-blot assay, substrate protein degradation in hPBMCs: IKZF3; type: cell-based; details: 24 hours of compound treatment, 50 nM and 500 nM
T4 construct: effects of the compounds of the present disclosure on the expression of target proteins in cells; endogenous in cells; host or cells: human PBMCs (hPBMCs)

CK1α = biological target: T5, CK1α (Homo sapiens, UniProt P48729+Q96SW2); test: Western-blot assay, substrate protein degradation in hPBMCs: CK1α; type: cell-based; details: 24 hours of compound treatment, 50 nM and 500 nM
T5 construct: effects of the compounds of the present disclosure on the expression of target proteins in cells; endogenous in cells; host or cells: human PBMCs (hPBMCs)

GSPT1 = biological target: T6, GSPT1 (Homo sapiens, UniProt P15170+Q96SW2); test: Western-blot assay, substrate protein degradation in hPBMCs: GSPT1; type: cell-based; details: 24 hours of compound treatment, 50 nM and 500 nM
T6 construct: effects of the compounds of the present disclosure on the expression of target proteins in cells; endogenous in cells; host or cells: human PBMCs (hPBMCs)

T1 sequence (P30291 whole entry): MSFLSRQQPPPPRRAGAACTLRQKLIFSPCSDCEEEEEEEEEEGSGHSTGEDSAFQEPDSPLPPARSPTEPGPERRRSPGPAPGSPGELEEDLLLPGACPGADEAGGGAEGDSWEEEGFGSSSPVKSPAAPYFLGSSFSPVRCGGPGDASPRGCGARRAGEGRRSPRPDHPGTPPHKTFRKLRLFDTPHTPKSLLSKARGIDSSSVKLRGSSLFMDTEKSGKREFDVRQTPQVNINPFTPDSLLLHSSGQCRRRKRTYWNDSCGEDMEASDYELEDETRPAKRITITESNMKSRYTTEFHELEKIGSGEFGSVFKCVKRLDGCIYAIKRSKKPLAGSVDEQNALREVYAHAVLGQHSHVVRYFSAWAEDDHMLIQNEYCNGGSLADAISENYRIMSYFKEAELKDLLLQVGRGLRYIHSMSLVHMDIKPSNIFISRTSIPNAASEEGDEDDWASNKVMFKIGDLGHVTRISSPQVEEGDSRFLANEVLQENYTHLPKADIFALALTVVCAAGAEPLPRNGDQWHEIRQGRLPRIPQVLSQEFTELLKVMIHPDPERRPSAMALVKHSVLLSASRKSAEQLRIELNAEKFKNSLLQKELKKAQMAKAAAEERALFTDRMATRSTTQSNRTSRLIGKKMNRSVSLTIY
T1 sequence (Q96SW2 whole entry): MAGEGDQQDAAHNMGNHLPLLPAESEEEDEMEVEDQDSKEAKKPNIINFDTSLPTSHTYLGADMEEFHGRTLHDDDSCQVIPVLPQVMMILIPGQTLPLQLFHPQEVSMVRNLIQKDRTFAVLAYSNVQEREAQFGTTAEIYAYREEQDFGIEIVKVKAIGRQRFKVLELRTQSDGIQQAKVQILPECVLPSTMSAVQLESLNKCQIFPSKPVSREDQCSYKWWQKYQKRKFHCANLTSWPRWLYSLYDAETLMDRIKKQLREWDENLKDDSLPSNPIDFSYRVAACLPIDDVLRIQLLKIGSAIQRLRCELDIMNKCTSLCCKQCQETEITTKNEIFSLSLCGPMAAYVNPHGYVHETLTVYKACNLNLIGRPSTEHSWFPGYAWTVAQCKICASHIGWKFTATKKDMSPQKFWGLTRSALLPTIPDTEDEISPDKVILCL
T1 sequence (Q16531 whole entry partner): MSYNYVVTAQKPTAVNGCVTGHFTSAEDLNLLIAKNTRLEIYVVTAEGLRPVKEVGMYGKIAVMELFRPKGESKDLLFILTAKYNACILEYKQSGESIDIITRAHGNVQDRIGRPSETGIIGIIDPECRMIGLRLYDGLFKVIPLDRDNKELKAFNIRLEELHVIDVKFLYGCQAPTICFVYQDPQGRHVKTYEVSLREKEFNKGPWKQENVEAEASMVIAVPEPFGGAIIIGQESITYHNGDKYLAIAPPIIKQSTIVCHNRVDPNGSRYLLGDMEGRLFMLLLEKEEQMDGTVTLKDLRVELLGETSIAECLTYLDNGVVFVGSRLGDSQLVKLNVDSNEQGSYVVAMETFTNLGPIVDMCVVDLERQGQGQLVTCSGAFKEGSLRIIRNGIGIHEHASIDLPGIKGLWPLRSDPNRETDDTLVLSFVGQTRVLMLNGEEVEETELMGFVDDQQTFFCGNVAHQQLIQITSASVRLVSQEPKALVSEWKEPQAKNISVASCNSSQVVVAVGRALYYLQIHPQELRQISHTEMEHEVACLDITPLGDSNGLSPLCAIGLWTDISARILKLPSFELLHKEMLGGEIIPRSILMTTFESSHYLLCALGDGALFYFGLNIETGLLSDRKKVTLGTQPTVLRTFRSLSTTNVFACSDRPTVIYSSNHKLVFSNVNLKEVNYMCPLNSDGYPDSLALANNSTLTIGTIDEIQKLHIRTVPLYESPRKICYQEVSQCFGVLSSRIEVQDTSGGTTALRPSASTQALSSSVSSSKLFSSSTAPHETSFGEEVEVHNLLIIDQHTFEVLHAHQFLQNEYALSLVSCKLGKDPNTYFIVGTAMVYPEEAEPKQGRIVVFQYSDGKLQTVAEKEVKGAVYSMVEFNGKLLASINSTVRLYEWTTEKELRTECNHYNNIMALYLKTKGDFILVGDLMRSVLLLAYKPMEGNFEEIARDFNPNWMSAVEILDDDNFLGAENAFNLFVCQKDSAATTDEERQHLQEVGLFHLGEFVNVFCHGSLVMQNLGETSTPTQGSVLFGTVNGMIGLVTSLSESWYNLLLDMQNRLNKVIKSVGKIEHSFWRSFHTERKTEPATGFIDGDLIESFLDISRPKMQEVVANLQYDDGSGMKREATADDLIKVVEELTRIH
T5 sequence (P48729 whole entry): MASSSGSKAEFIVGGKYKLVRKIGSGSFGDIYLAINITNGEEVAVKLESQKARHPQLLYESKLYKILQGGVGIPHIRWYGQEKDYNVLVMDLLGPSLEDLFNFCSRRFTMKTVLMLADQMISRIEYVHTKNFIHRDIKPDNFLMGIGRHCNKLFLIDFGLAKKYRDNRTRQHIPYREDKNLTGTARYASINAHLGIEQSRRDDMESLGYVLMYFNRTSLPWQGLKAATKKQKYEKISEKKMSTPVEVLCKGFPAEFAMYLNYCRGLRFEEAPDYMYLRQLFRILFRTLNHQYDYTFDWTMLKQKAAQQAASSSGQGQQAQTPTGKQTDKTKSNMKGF
T5 sequence (Q96SW2 whole entry): as the sequence (Q96SW2 whole entry) above
T5 sequence (Q16531 whole entry partner): as the sequence (Q16531 whole entry partner) above
T4 sequence (Q9UKT9 whole entry): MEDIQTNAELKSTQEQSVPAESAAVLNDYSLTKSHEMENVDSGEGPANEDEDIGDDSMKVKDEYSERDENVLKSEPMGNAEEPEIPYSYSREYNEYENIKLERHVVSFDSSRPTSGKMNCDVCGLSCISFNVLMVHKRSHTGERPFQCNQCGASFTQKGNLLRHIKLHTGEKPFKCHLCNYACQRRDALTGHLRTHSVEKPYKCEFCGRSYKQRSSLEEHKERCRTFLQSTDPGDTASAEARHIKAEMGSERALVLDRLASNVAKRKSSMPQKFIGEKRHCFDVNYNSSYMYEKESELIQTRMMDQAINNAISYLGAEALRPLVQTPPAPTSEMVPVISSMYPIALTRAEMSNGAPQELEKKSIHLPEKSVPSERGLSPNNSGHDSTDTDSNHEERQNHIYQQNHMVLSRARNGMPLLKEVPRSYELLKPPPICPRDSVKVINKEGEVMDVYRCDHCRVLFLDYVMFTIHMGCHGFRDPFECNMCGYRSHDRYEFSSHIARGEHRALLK
T4 sequence (Q96SW2 whole entry): as the sequence (Q96SW2 whole entry) above
T4 sequence (Q16531 whole entry partner): as the sequence (Q16531 whole entry partner) above
T3 sequence (Q9UKS7 whole entry): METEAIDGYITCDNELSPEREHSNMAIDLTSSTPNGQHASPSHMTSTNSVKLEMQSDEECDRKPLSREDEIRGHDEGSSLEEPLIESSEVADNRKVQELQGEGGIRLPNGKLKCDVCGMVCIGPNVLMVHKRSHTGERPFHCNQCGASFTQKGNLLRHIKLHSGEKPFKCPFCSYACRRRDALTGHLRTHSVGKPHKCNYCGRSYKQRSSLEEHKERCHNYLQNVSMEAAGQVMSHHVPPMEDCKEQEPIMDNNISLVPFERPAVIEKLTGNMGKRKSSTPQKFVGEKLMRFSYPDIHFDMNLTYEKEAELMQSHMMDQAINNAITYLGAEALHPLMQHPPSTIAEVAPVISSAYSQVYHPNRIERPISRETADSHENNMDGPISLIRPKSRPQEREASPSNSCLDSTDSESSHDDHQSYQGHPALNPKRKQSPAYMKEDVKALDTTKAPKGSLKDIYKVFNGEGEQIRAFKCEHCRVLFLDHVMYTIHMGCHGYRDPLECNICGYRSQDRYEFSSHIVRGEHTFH
T3 sequence (Q96SW2 whole entry): as the sequence (Q96SW2 whole entry) above
T3 sequence (Q16531 whole entry partner): as the sequence (Q16531 whole entry partner) above
T2 sequence (Q13422 whole entry): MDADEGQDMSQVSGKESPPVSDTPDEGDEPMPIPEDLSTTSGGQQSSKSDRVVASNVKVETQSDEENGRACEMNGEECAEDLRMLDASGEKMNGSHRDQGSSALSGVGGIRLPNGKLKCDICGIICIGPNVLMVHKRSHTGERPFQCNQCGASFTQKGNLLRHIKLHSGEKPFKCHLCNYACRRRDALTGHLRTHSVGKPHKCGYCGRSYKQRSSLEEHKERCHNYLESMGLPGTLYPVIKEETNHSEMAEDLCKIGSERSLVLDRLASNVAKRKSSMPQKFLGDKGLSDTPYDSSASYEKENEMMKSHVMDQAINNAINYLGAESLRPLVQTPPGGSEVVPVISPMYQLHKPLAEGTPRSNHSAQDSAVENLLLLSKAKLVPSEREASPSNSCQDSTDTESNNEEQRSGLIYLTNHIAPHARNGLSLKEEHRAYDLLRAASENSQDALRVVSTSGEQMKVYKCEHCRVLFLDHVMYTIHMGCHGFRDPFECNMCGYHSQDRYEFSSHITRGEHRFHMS
T2 sequence (Q96SW2 whole entry): as the sequence (Q96SW2 whole entry) above
T2 sequence (Q16531 whole entry partner): as the sequence (Q16531 whole entry partner) above

O=C1CCN(N2Cc3cc(CN4CC(n5cnc6cc(F)ccc65)C4)ccc3C2=O)C(=O)N1 [GT-07723, 1-(5-((3-(5-fluoro-1H-benzo[d]imidazol-1-yl)azetidin-1-yl)methyl)-1-oxoisoindolin-2-yl)dihydropyrimidine-2,4(1H,3H)-dione]
inhibition at 0.01 µM (H292): 15 to 20% | inhibition at 0.5 µM (H292): 5 to 10%

Cc1nc(N2CCN(Cc3ccc4c(c3)C(=O)N(N3CCC(=O)NC3=O)C4=O)CC2)c2ccsc2n1 [GT-08100, 2-(2,4-dioxotetrahydropyrimidin-1(2H)-yl)-5-((4-(2-methylthieno[2,3-d]pyrimidin-4-yl)piperazin-1-yl)methyl)isoindoline-1,3-dione]
inhibition at 0.01 µM (H292): 5 to 10% | inhibition at 0.5 µM (H292): 10 to 15%

O=C1CCN(N2C(=O)c3ccc(CN4CCN(c5ncnc6sc7c(c56)CCC7)CC4)cc3C2=O)C(=O)N1 [GT-08103, 5-((4-(6,7-dihydro-5H-cyclopenta[4,5]thieno[2,3-d]pyrimidin-4-yl)piperazin-1-yl)methyl)-2-(2,4-dioxotetrahydropyrimidin-1(2H)-yl)isoindoline-1,3-dione]
substrate protein remaining % WEE1 (WEE1): B (80%< substrate protein remaining %≤ 100%) | substrate protein remaining % IKZF1 (IKZF1): B (80%< substrate protein remaining %≤ 100%) | substrate protein remaining % IKZF2 (IKZF2): A (0% ≤ substrate protein remaining % ≤ 80%) | substrate protein remaining % IKZF3 (IKZF3): A (0% ≤ substrate protein remaining % ≤ 80%) | substrate protein remaining % CK1α (CK1α): B (80%< substrate protein remaining %≤ 100%) | substrate protein remaining % GSPT1 (GSPT1): B (80%< substrate protein remaining %≤ 100%) | inhibition at 0.01 µM (H292): 15 to 20% | inhibition at 0.5 µM (H292): 15 to 20%

O=C1CCN(N2C(=O)c3ccc(CN4CCN(c5ncc6ccsc6n5)CC4)cc3C2=O)C(=O)N1 [GT-08105, 2-(2,4-dioxotetrahydropyrimidin-1(2H)-yl)-5-((4-(thieno[2,3-d]pyrimidin-2-yl)piperazin-1-yl)methyl)isoindoline-1,3-dione]
substrate protein remaining % WEE1 (WEE1): B (80%< substrate protein remaining %≤ 100%) | substrate protein remaining % IKZF1 (IKZF1): B (80%< substrate protein remaining %≤ 100%) | substrate protein remaining % IKZF2 (IKZF2): A (0% ≤ substrate protein remaining % ≤ 80%) | substrate protein remaining % IKZF3 (IKZF3): A (0% ≤ substrate protein remaining % ≤ 80%) | substrate protein remaining % CK1α (CK1α): B (80%< substrate protein remaining %≤ 100%) | substrate protein remaining % GSPT1 (GSPT1): A (0% ≤ substrate protein remaining % ≤ 80%) | inhibition at 0.01 µM (H292): 10 to 15% | inhibition at 0.5 µM (H292): 10 to 15%

O=C1CCN(N2Cc3cc(CN4CCC(c5ncc6ccsc6n5)CC4)ccc3C2=O)C(=O)N1 [GT-08115, 1-(1-oxo-5-((4-(thieno[2,3-d]pyrimidin-2-yl)piperidin-1-yl)methyl)isoindolin-2-yl)dihydropyrimidine-2,4(1H,3H)-dione]
substrate protein remaining % WEE1 (WEE1): B (80%< substrate protein remaining %≤ 100%) | substrate protein remaining % IKZF1 (IKZF1): B (80%< substrate protein remaining %≤ 100%) | substrate protein remaining % IKZF2 (IKZF2): B (80%< substrate protein remaining %≤ 100%) | substrate protein remaining % IKZF3 (IKZF3): B (80%< substrate protein remaining %≤ 100%) | substrate protein remaining % CK1α (CK1α): A (0% ≤ substrate protein remaining % ≤ 80%) | substrate protein remaining % GSPT1 (GSPT1): A (0% ≤ substrate protein remaining % ≤ 80%) | inhibition at 0.01 µM (H292): 20 to 40% | inhibition at 0.5 µM (H292): 15 to 20%

CC1(C)[C@@H]2CC[C@]1(CS(=O)(=O)NCc1ccc3c(c1)CN(N1CCC(=O)NC1=O)C3=O)C(=O)C2 [GT-08133, 1-((1R,4R)-7,7-dimethyl-2-oxobicyclo[2.2.1]heptan-1-yl)-N-((2-(2,4-dioxotetrahydropyrimidin-1(2H)-yl)-1-oxoisoindolin-5-yl)methyl)methanesulfonamide]
inhibition at 0.01 µM (H292): 15 to 20% | inhibition at 0.5 µM (H292): 20 to 40%

O=C1CCN(N2C(=O)c3ccc(CN4CCC(c5ncnc6sc7c(c56)CCCC7)CC4)cc3C2=O)C(=O)N1 [GT-08424, 2-(2,4-dioxotetrahydropyrimidin-1(2H)-yl)-5-((4-(5,6,7,8-tetrahydrobenzo[4,5]thieno[2,3-d]pyrimidin-4-yl)piperidin-1-yl)methyl)isoindoline-1,3-dione]
substrate protein remaining % WEE1 (WEE1): B (80%< substrate protein remaining %≤ 100%) | substrate protein remaining % IKZF1 (IKZF1): B (80%< substrate protein remaining %≤ 100%) | substrate protein remaining % IKZF2 (IKZF2): B (80%< substrate protein remaining %≤ 100%) | substrate protein remaining % IKZF3 (IKZF3): B (80%< substrate protein remaining %≤ 100%) | substrate protein remaining % CK1α (CK1α): A (0% ≤ substrate protein remaining % ≤ 80%) | substrate protein remaining % GSPT1 (GSPT1): A (0% ≤ substrate protein remaining % ≤ 80%) | inhibition at 0.01 µM (H292): 20 to 40% | inhibition at 0.5 µM (H292): 10 to 15%

O=C1CCN(N2C(=O)c3ccc(CN4CCC(c5ncnc6sc7c(c56)CCC7)CC4)cc3C2=O)C(=O)N1 [GT-08425, 5-((4-(6,7-dihydro-5H-cyclopenta[4,5]thieno[2,3-d]pyrimidin-4-yl)piperidin-1-yl)methyl)-2-(2,4-dioxotetrahydropyrimidin-1(2H)-yl)isoindoline-1,3-dione]
inhibition at 0.01 µM (H292): 15 to 20% | inhibition at 0.5 µM (H292): 5 to 10%

Cc1nc(C2CCN(Cc3ccc4c(c3)C(=O)N(N3CCC(=O)NC3=O)C4=O)CC2)c2c3c(sc2n1)CCC3 [GT-08426, 2-(2,4-dioxotetrahydropyrimidin-1(2H)-yl)-5-((4-(2-methyl-6,7-dihydro-5H-cyclopenta[4,5]thieno[2,3-d]pyrimidin-4-yl)piperidin-1-yl)methyl)isoindoline-1,3-dione]
inhibition at 0.01 µM (H292): 20 to 40% | inhibition at 0.5 µM (H292): 20 to 40%

O=C1CCN(N2C(=O)c3ccc(CN4CCC(c5ncc6ccsc6n5)CC4)cc3C2=O)C(=O)N1 [GT-08427, 2-(2,4-dioxotetrahydropyrimidin-1(2H)-yl)-5-((4-(thieno[2,3-d]pyrimidin-2-yl)piperidin-1-yl)methyl)isoindoline-1,3-dione]
substrate protein remaining % WEE1 (WEE1): A (0% ≤ substrate protein remaining % ≤ 80%) | substrate protein remaining % IKZF1 (IKZF1): B (80%< substrate protein remaining %≤ 100%) | substrate protein remaining % IKZF2 (IKZF2): A (0% ≤ substrate protein remaining % ≤ 80%) | substrate protein remaining % IKZF3 (IKZF3): B (80%< substrate protein remaining %≤ 100%) | substrate protein remaining % CK1α (CK1α): B (80%< substrate protein remaining %≤ 100%) | substrate protein remaining % GSPT1 (GSPT1): B (80%< substrate protein remaining %≤ 100%) | inhibition at 0.01 µM (H292): 15 to 20% | inhibition at 0.5 µM (H292): 20 to 40%

Cc1csc2ncnc(C3=CCN(Cc4ccc5c(c4)C(=O)N(N4CCC(=O)NC4=O)C5=O)CC3)c12 [GT-08428, 2-(2,4-dioxotetrahydropyrimidin-1(2H)-yl)-5-((4-(5-methylthieno[2,3-d]pyrimidin-4-yl)-3,6-dihydropyridin-1(2H)-yl)methyl)isoindoline-1,3-dione]
substrate protein remaining % WEE1 (WEE1): A (0% ≤ substrate protein remaining % ≤ 80%) | substrate protein remaining % IKZF1 (IKZF1): B (80%< substrate protein remaining %≤ 100%) | substrate protein remaining % IKZF2 (IKZF2): A (0% ≤ substrate protein remaining % ≤ 80%) | substrate protein remaining % IKZF3 (IKZF3): A (0% ≤ substrate protein remaining % ≤ 80%) | substrate protein remaining % CK1α (CK1α): B (80%< substrate protein remaining %≤ 100%) | substrate protein remaining % GSPT1 (GSPT1): B (80%< substrate protein remaining %≤ 100%) | inhibition at 0.01 µM (H292): 5 to 10% | inhibition at 0.5 µM (H292): 20 to 40%

CC(C)c1cc2c(C3=CCN(Cc4ccc5c(c4)C(=O)N(N4CCC(=O)NC4=O)C5=O)CC3)ncnc2s1 [GT-08429, 2-(2,4-dioxotetrahydropyrimidin-1(2H)-yl)-5-((4-(6-isopropylthieno[2,3-d]pyrimidin-4-yl)-3,6-dihydropyridin-1(2H)-yl)methyl)isoindoline-1,3-dione]
inhibition at 0.01 µM (H292): 20 to 40% | inhibition at 0.5 µM (H292): 20 to 40%

O=C1CCN(N2C(=O)c3ccc(CN4CC=C(c5ncnc6sc(-c7ccccc7)cc56)CC4)cc3C2=O)C(=O)N1 [GT-08430, 2-(2,4-dioxotetrahydropyrimidin-1(2H)-yl)-5-((4-(6-phenylthieno[2,3-d]pyrimidin-4-yl)-3,6-dihydropyridin-1(2H)-yl)methyl)isoindoline-1,3-dione]
substrate protein remaining % WEE1 (WEE1): A (0% ≤ substrate protein remaining % ≤ 80%) | substrate protein remaining % IKZF1 (IKZF1): B (80%< substrate protein remaining %≤ 100%) | substrate protein remaining % IKZF2 (IKZF2): B (80%< substrate protein remaining %≤ 100%) | substrate protein remaining % IKZF3 (IKZF3): B (80%< substrate protein remaining %≤ 100%) | substrate protein remaining % CK1α (CK1α): B (80%< substrate protein remaining %≤ 100%) | substrate protein remaining % GSPT1 (GSPT1): B (80%< substrate protein remaining %≤ 100%) | inhibition at 0.01 µM (H292): 15 to 20% | inhibition at 0.5 µM (H292): 10 to 15%

O=C1CCN(N2C(=O)c3ccc(CN4CCN(c5nc(N6CCOCC6)c6sccc6n5)CC4)cc3C2=O)C(=O)N1 [GT-08456, 2-(2,4-dioxotetrahydropyrimidin-1(2H)-yl)-5-((4-(4-morpholinothieno[3,2-d]pyrimidin-2-yl)piperazin-1-yl)methyl)isoindoline-1,3-dione]
inhibition at 0.01 µM (H292): 5 to 10% | inhibition at 0.5 µM (H292): 20 to 40%

O=C1CCN(N2Cc3cc(CN4CCN(c5nc(N6CCNCC6)c6sccc6n5)CC4)ccc3C2=O)C(=O)N1 [GT-08949, 1-(1-oxo-5-((4-(4-(piperazin-1-yl)thieno[3,2-d]pyrimidin-2-yl)piperazin-1-yl)methyl)isoindolin-2-yl)dihydropyrimidine-2,4(1H,3H)-dione]
substrate protein remaining % WEE1 (WEE1): B (80%< substrate protein remaining %≤ 100%) | substrate protein remaining % IKZF1 (IKZF1): B (80%< substrate protein remaining %≤ 100%) | substrate protein remaining % IKZF2 (IKZF2): B (80%< substrate protein remaining %≤ 100%) | substrate protein remaining % IKZF3 (IKZF3): B (80%< substrate protein remaining %≤ 100%) | substrate protein remaining % CK1α (CK1α): B (80%< substrate protein remaining %≤ 100%) | substrate protein remaining % GSPT1 (GSPT1): A (0% ≤ substrate protein remaining % ≤ 80%)
